Consider 44 molecules from patent US10034886B2, “GLP-1 receptor modulators” (Celgene International II SÀRL, priority 2014, dated 2018).

Structures are written as SMILES.

T1 sequence (P43220 24-463): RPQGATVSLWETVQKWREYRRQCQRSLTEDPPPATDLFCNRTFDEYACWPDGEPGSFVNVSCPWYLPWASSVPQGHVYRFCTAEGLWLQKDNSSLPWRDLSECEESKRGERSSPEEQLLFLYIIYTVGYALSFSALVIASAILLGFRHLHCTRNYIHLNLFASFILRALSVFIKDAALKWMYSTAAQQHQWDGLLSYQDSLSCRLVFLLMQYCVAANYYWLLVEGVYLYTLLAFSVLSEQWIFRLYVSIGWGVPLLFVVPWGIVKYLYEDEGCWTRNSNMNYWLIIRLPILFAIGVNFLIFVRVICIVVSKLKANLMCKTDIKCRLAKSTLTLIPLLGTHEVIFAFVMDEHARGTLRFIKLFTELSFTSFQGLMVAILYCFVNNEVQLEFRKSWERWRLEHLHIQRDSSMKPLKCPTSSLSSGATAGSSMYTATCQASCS
T1 sequence (P01275 100-127 partner limits assumed): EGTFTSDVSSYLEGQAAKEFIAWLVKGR

This assay has as its target T1, GLP-1R (Homo sapiens, UniProt P43220).
T1 construct: host or cells: GLP-1R CRE-bla CHO-K1 cells
As to the kind of experiment: EC20 GLP-1(9-36) PAM cAMP assay: dose response of compound in the presence of fixed concentration of GLP-1(9-36). It counts as cell-based. Particulars: GLP-1R CRE-bla CHO-K1 cells, compound dose response with fixed concentration of GLP-1(9-36), read-out: EC20 GLP-1(9-36) PAM EC50. Put shortly:
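GLP-1R CRE-bla CHO-K1 cells treated 30 min at 37 °C with 12-point compound dose response plus fixed EC20 GLP-1(9-36), with IBMX, in HBSS/HEPES/0.1% BSA pH 7.4. Total cAMP measured by luminescent detection against standard curve; EC50 and Emax from non-linear regression.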
A general note: cAMP levels reflect the balance of adenylyl cyclase and phosphodiesterase activity.
As a reminder, the EC50 is the concentration that produces a half-maximal response. In the case of `C[C@@H](NC(=O)[C@H](Cc1ccc(-c2ncc(-c3cnc(-c4ccccc4)nc3)cn2)cc1)NC(=O)c1ccc(C(C)(C)C)s1)C(=O)O` [Compound 1311], the EC50 lay within 2500 to 5000 nM.

As for `C[C@@H](NC(=O)[C@H](Cc1ccc(-c2ncc(-c3ccc(-c4ccc(C(C)(C)C)cc4)cc3)cn2)cc1)NC(=O)c1ccc(C(C)(C)C)s1)C(=O)O` [Compound 1312], the EC50 lay in the range of 800 to 2500 nM.

In the case of `C[C@@H](NC(=O)[C@H](Cc1ccc(-c2ncc(-c3ccc(-c4ccc(C(F)(F)F)cc4)cc3)cn2)cc1)NC(=O)c1ccc(C(C)(C)C)s1)C(=O)O` [Compound 1313], the 50% effective concentration (EC50) is less than 800 nM.

With `C[C@@H](NC(=O)[C@H](Cc1ccc(-c2ncc(-c3ccc(-c4ccc(OC(F)(F)F)cc4)cc3)cn2)cc1)NC(=O)c1ccc(C(C)(C)C)s1)C(=O)O` [Compound 1314], the half-maximal effective concentration (EC50) was less than 800 nM.

With `C[C@@H](NC(=O)[C@H](Cc1ccc(-c2ncc(-c3ccc(-c4ccc(Cl)cc4)cc3)cn2)cc1)NC(=O)c1ccc(C(C)(C)C)s1)C(=O)O` [Compound 1315], the EC50 was less than 800 nM.

Turning to `C[C@@H](NC(=O)[C@H](Cc1ccc(-c2ncc(-c3ccc(C4CCC(C)(C)CC4)cc3)cn2)cc1)NC(=O)c1ccc(C(C)(C)C)s1)C(=O)O` [Compound 1316], the concentration giving a half-maximal response (EC50) was less than 800 nM.

`CCCC[C@H]1CC[C@H](c2ccc(-c3cnc(-c4ccc(C[C@H](NC(=O)c5ccc(C(C)(C)C)s5)C(=O)N[C@H](C)C(=O)O)cc4)nc3)cc2)CC1` [Compound 1317]: the EC50 was less than 800 nM.

As to `C[C@@H](NC(=O)[C@H](Cc1ccc(-c2ncc(-c3ccc(-c4ccccc4)cc3F)cn2)cc1)NC(=O)c1ccc(C(C)(C)C)s1)C(=O)O` [Compound 1318], the EC50 is less than 800 nM.

In the case of `C[C@@H](NC(=O)[C@H](Cc1ccc(-c2ncc(-c3ccc(-c4cccc(C(F)(F)F)c4)cc3)cn2)cc1)NC(=O)c1ccc(C(C)(C)C)s1)C(=O)O` [Compound 1319], the EC50 lay within 5000 to 10000 nM.

With `CCCc1ccc(-c2ccc(-c3cnc(-c4ccc(C[C@H](NC(=O)c5ccc(C(C)(C)C)s5)C(=O)N[C@H](C)C(=O)O)cc4)nc3)c(F)c2)cc1` [Compound 1320], the EC50 is less than 800 nM.

With `CC[C@H]1CC[C@H](c2ccc(-c3cnc(-c4ccc(C[C@H](NC(=O)c5ccc(C(C)(C)C)s5)C(=O)N5C6CCC5C(C(=O)O)C6)cc4)nc3)cc2)CC1` (some centres unmarked) [Compound 1321], the EC50 was 800 to 2500 nM.

On to `CC[C@H]1CC[C@H](c2ccc(-c3cnc(-c4ccc(C[C@H](NC(=O)c5ccc(C(C)(C)C)s5)C(=O)N[C@H](Cc5c[nH]cn5)C(=O)O)cc4)nc3)cc2)CC1` [Compound 1322], for which the EC50 is less than 800 nM.

Consider `CC[C@H]1CC[C@H](c2ccc(-c3cnc(-c4ccc(C[C@H](NC(=O)c5ccc(C(C)(C)C)s5)C(=O)NCC(=O)O)cc4)nc3)cc2)CC1` [Compound 1323], for which the 50% effective concentration (EC50) is less than 800 nM.

In the case of `CC[C@H]1CC[C@H](c2ccc(-c3cnc(-c4ccc(C[C@H](NC(=O)c5ccc(C(C)(C)C)s5)C(=O)NCCC(=O)O)cc4)nc3)cc2)CC1` [Compound 1324], the concentration for a half-maximal effect (EC50) was less than 800 nM.

`CC[C@H]1CC[C@H](c2ccc(-c3cnc(-c4ccc(C[C@H](NC(=O)c5ccc(C(C)(C)C)s5)C(=O)N[C@@H](CC(N)=O)C(=O)O)cc4)nc3)cc2)CC1` [Compound 1325]: the EC50 is less than 800 nM.

As for `CC[C@H]1CC[C@H](c2ccc(-c3cnc(-c4ccc(C[C@H](NC(=O)c5ccc(C(C)(C)C)s5)C(=O)N[C@@H](CO)C(=O)O)cc4)nc3)cc2)CC1` [Compound 1326], the EC50 is less than 800 nM.

With `CC[C@H]1CC[C@H](c2ccc(-c3cnc(-c4ccc(C[C@H](NC(=O)c5ccc(C(C)(C)C)s5)C(=O)N[C@H](C(=O)O)[C@@H](C)O)cc4)nc3)cc2)CC1` [Compound 1327], the EC50 is less than 800 nM.

`CC[C@H]1CC[C@H](c2ccc(-c3cnc(-c4ccc(C[C@H](NC(=O)c5ccc(C(C)(C)C)s5)C(=O)N[C@H](C(=O)O)C(C)C)cc4)nc3)cc2)CC1` [Compound 1328]: the EC50 lay in the range of 800 to 2500 nM.

With `COc1ccc(-c2ccc(-c3cnc(-c4ccc(C[C@H](NC(=O)c5ccc(C(C)(C)C)s5)C(=O)N5CC(C(=O)O)C5)cc4)nc3)c(F)c2)cc1` [Compound 1329], the EC50 was less than 800 nM.

For the molecule `CCOc1ccc(-c2ccc(-c3cnc(-c4ccc(C[C@H](NC(=O)c5ccc(C(C)(C)C)s5)C(=O)N5CC(C(=O)O)C5)cc4)nc3)c(F)c2)cc1` [Compound 1330], the 50% effective concentration (EC50) was less than 800 nM.

For `CCCOc1ccc(-c2ccc(-c3cnc(-c4ccc(C[C@H](NC(=O)c5ccc(C(C)(C)C)s5)C(=O)N5CC(C(=O)O)C5)cc4)nc3)c(F)c2)cc1` [Compound 1331], the EC50 was less than 800 nM.

Take `CCCCOc1ccc(-c2ccc(-c3cnc(-c4ccc(C[C@H](NC(=O)c5ccc(C(C)(C)C)s5)C(=O)N5CC(C(=O)O)C5)cc4)nc3)c(F)c2)cc1` [Compound 1332]: the EC50 was less than 800 nM.

Turning to `CC[C@H]1CC[C@H](c2ccc(-c3ccc(-c4ccc(C[C@H](NC(=O)c5ccc(C(C)(C)C)s5)C(=O)O)cc4)nc3)cc2)CC1` [Compound 1333, (S)-2-(5-(tert-butyl)thiophene-2-carboxamido)-3-(4-(5-(4-((1r,4r)-4-ethylcyclohexyl)phenyl)pyridin-2-yl)phenyl)propanoic acid], the half-maximal effective concentration (EC50) was 2500 to 5000 nM.

As to `CC[C@H]1CC[C@H](c2ccc(-c3ccc(-c4ccc(C[C@H](NC(=O)c5ccc(C(C)(C)C)s5)C(=O)N5CC(C(=O)O)C5)cc4)nc3)cc2)CC1` [Compound 1334], the EC50 was less than 800 nM.

As for `CC[C@H]1CC[C@H](c2ccc(-c3ccc(-c4ccc(C[C@H](NC(=O)c5ccc(C(C)(C)C)s5)C(=O)O)cc4)cn3)cc2)CC1` [Compound 1335], the EC50 was in the range of 2500 to 5000 nM.

As to `CC[C@H]1CC[C@H](c2ccc(-c3cnc(-c4ccc(C[C@H](NC(=O)c5ccc(C(C)(C)C)s5)C(=O)O)cc4)nn3)cc2)CC1` [Compound 1336, (S)-2-(5-(tert-butyl)thiophene-2-carboxamido)-3-(4-(6-(4-((1r,4r)-4-ethylcyclohexyl)phenyl)-1,2,4-triazin-3-yl)phenyl)propanoic acid], the half-maximal effective concentration (EC50) was in the range of 2500 to 5000 nM.

Turning to `CC[C@H]1CC[C@H](c2ccc(-c3cnc(-c4ccc(C[C@H](NC(=O)c5ccc(C(C)(C)C)s5)C(=O)N5CC(C(=O)O)C5)cc4)nn3)cc2)CC1` [Compound 1337], the EC50 was less than 800 nM.

Take `Cc1ccc(S(=O)(=O)N2CC=C(c3cnc(-c4ccc(C[C@H](NC(=O)c5ccc(C(C)(C)C)s5)C(=O)N[C@H](C)C(=O)O)cc4)nc3)CC2)cc1` [Compound 1338]: the EC50 fell in the range of 2500 to 5000 nM.

With `CC[C@H]1CC[C@H](c2ccc(-c3cnc(-c4ccc(C[C@H](NC(=O)c5ccc(C(C)(C)C#N)s5)C(=O)N5CC(C(=O)O)C5)cc4)nc3)cc2)CC1` [Compound 1339], the EC50 is less than 800 nM.

Regarding `CC[C@H]1CC[C@H](c2ccc(-c3cnc(-c4ccc(C[C@H](NC(=O)c5ccc(C6(C#N)CC6)s5)C(=O)N5CC(C(=O)O)C5)cc4)nc3)cc2)CC1` [Compound 1340], the EC50 is less than 800 nM.

As to `CC[C@H]1CC[C@H](c2ccc(-c3ccc(-c4ccc(C[C@H](NC(=O)c5ccc(C(C)(C)C)s5)C(=O)N5CC(C(=O)O)C5)cc4)cn3)cc2)CC1` [Compound 1341], the EC50 was less than 800 nM.

As for `CCc1ccc(C(=O)N[C@@H](Cc2ccc(-c3ncc(-c4ccc([C@H]5CC[C@H](CC)CC5)cc4)cn3)cc2)C(=O)N2CC(C(=O)O)C2)nc1` [Compound 1342], the EC50 is 800 to 2500 nM.

`CCC[C@H]1CC[C@H](c2ccc(-c3cnc(-c4ccc(C[C@H](NC(=O)c5ccc(C(C)(C)C)s5)C(=O)N5CC(C(=O)O)C5)cc4)nc3)cc2)CC1` [Compound 1343, 1-((S)-2-(5-(tert-butyl)thiophene-2-carboxamido)-3-(4-(5-(4-((1s,4r)-4-propylcyclohexyl)phenyl)pyrimidin-2-yl)phenyl)propanoyl)azetidine-3-carboxylic acid]: the EC50 was less than 800 nM.

`CC1(C)CCC(c2ccc(-c3cnc(-c4ccc(C[C@H](NC(=O)c5ccc(C(C)(C)C)s5)C(=O)O)cc4)nc3)cc2)CC1` [Compound 1344]: the EC50 lay within 800 to 2500 nM.

As for `CC(C)(C)c1ccc(C(=O)N[C@@H](Cc2ccc(-c3ncc(-c4ccc(C5CCCCC5)cc4)cn3)cc2)C(=O)O)s1` [Compound 1345], the EC50 fell in the range of 800 to 2500 nM.

With `CCC[C@H]1CC[C@H](c2ccc(-c3cnc(-c4ccc(C[C@H](NC(=O)c5ccc(C(C)(C)C)s5)C(=O)O)cc4)nc3)cc2)CC1` [Compound 1346], the EC50 was less than 800 nM.

In the case of `CC(C)(C)c1ccc(C(=O)N[C@@H](Cc2ccc(-c3ncc(-c4ccc(-c5cccc(C(F)(F)F)c5)cc4)cn3)cc2)C(=O)O)s1` [Compound 1347], the EC50 was less than 800 nM.

Turning to `CC(C)(C)c1ccc(-c2ccc(-c3cnc(-c4ccc(C[C@H](NC(=O)c5ccc(C(C)(C)C)s5)C(=O)O)cc4)nc3)cc2)cc1` [Compound 1348], the EC50 fell in the range of 2500 to 5000 nM.

On to `CCOc1ccc(-c2cnc(-c3ccc(C[C@H](NC(=O)c4ccc(C(C)(C)C)s4)C(=O)O)cc3)nc2)cc1` [Compound 1349], for which the EC50 fell in the range of 5000 to 10000 nM.

Turning to `CC(C)(C)COc1ccc(-c2cnc(-c3ccc(C[C@H](NC(=O)c4ccc(C(C)(C)C)s4)C(=O)O)cc3)nc2)cc1` [Compound 1350], the EC50 was 2500 to 5000 nM.

For `CC(C)(C)c1ccc(C(=O)N[C@@H](Cc2ccc(-c3ncc(-c4ccc(-c5ccccc5)c(F)c4)cn3)cc2)C(=O)O)s1` [Compound 1351], the EC50 lay in the range of 2500 to 5000 nM.

`CC(=O)c1ccc(-c2ccc(-c3cnc(-c4ccc(C[C@H](NC(=O)c5ccc(C(C)(C)C)s5)C(=O)O)cc4)nc3)cc2)cc1` [Compound 1352]: the EC50 lay within 800 to 2500 nM.

On to `CC(C)(C)c1ccc(C(=O)N[C@@H](Cc2ccc(-c3ncc(-c4ccc(OCCN5CCCCC5)cc4)cn3)cc2)C(=O)O)s1` [Compound 1353], for which the EC50 is 5000 to 10000 nM.

As to `CC(C)(C)c1ccc(C(=O)N[C@@H](Cc2ccc(-c3ncc(-c4ccc(-c5ccc(F)cc5)cc4)cn3)cc2)C(=O)O)s1` [Compound 1354], the concentration for a half-maximal effect (EC50) fell in the range of 2500 to 5000 nM.
